Results taken from CN117800914A, “一种抗SARS-CoV-2病毒奥密克戎突变种抑制剂” (Second Military Medical University SMMU, priority 2023, dated 2024).

Tested on: SARS-CoV-2 Omicron mutant BA.2 (SARS-CoV-2奥密克戎毒突变种BA.2)
Assay type: cell-based, SARS-CoV-2 Omicron BA.2
Details: 20 h

| SMILES | IC50 [nM] |
| --- | --- |
| C/C=C(\C)C(=O)N[C@H](C)C(=O)O[C@H]1C/C=C/C=C/C=C/[C@H](OC)CC(=O)Nc2cc(ccc2F)CC/C=C(/C)[C@H](O)[C@H]1C [B6] | 413 |
| CO[C@H]1/C=C/C=C/C=C/C[C@H](OC(=O)[C@@H](C)NC(=O)CCC(C)C)[C@H](C)[C@@H](O)/C(CO)=C\CCc2cc(F)cc(c2)NC(=O)C1 [A6] | 450 |
| CO[C@H]1/C=C/C=C/C=C/C[C@H](OC(=O)[C@@H](C)NC(=O)CC(C)C)[C@H](C)[C@@H](O)/C(C)=C\CCc2cccc(c2)NC(=O)C1 [D1] | > 5000 |
| COc1cc2cc(c1)NC(=O)C[C@@H](OC)/C=C/C=C/C=C/C[C@H](O)[C@H](C)[C@@H](OC(=O)[C@@H](C)NC(=O)CC(C)C)/C(C)=C\CC2 [C7] | 825 |
| CO[C@H]1/C=C/C=C/C=C/C[C@H](OC(=O)[C@@H](C)NC(=O)CCC(C)C)[C@H](C)[C@@H](O)/C(C)=C\CCc2ccc(F)c(c2)NC(=O)C1 [B8] | 1100 |
| COc1cc2c(O)c(c1)NC(=O)C[C@@H](OC)/C=C/C=C/C=C/C[C@H](O)[C@H](C)[C@@H](OC(=O)[C@@H](C)NC(=O)CC(C)C)/C(C)=C\CC2 [C8] | 400 |
| CO[C@H]1/C=C/C=C/C=C/C[C@H](O)[C@H](C)[C@@H](OC(=O)[C@@H](C)NC(=O)CC(C)C)/C(C)=C\CCc2ccc(F)c(c2)NC(=O)C1 [B3] | 1190 |
| CCC(C)C(=O)N[C@H](C)C(=O)O[C@H]1C/C=C/C=C/C=C/[C@H](OC)CC(=O)Nc2cc(ccc2F)CC/C=C(/C)[C@H](O)[C@H]1C (some centres unmarked) [B5] | 200 |
| CO[C@H]1/C=C/C=C/C=C/C[C@H](OC(=O)[C@@H](C)NC(=O)CC(C)C)[C@H](C)[C@@H](O)/C(C)=C\CCc2ccc(F)c(c2)NC(=O)C1 [B1] | 300 |

Tested on: SARS-CoV-2 mutant strains (SARS-CoV-2突变株)
Details: treatment of SARS-CoV-2 mutant strains; cited from earlier work

| SMILES | clinical performance in treating SARS-CoV-2 mutant strains (in words) |
| --- | --- |
| CCC(CC)COC(=O)[C@H](C)N[P@](=O)(OC[C@H]1O[C@@](C#N)(c2ccc3c(N)ncnn23)[C@H](O)[C@@H]1O)Oc1ccccc1 [瑞德西韦] | 不尽如人意 |
| NC(=O)c1nc(F)c[nH]c1=O [法维拉韦] | 不尽如人意 |
